Reference: paper PMC8698657, “Absorption and Transport Characteristics and Mechanisms of Carnosic Acid” (Biology, 2021)
Read-outs that look alike come from different tables or passages of the source.

Assays:
[1] = Trans-enterocyte transport of CA in Caco-2 cell monolayer; type: in vitro ADME, human; conditions: human
Protocol: (§1) Caco-2 were cultured in EMEM complete medium containing 10% FBS, 1% non-essential amino acids, and 1% penicillin-streptomycin double antibody, and the culture conditions were 37 °C, 5% CO2, in a constant temperature incubator [16]. We first established non-toxic dose ranges of CA in Caco-2 cells using MTT assay. Dimethylsulfoxide (DMSO) was used as the vehicle to deliver CA to the cells. The final concentration of DMSO in all experiments was 0.1% (v/v) in cell culture media. Caco-2 cells were seeded in a 96-well plate at a cell density of 5 × 10^4 cells/mL per well, and cultured under 5% CO2 and 37 °C for 24 h. A quantity of 200 μL of medium was added to each well to obtain a series of CA solutions (concentrations of 25, 50, 75, and 100 μmoL). After 48 h of treatment, Caco-2 cells were subjected to the MTT assay as described previously. For the transport study, Caco-2 cells were seeded on the apical compartment (AP) of 12-well Transwell plates at a density of 2 × 10^5 cells/mL. The complete culture medium was added into basolateral (BL) and AP compartments. The basolateral medium was replaced every other day.
(§2) CA was dissolved in HBSS solution at 50, 75, and 100 μM. The HBSS solution containing CA combined with 0.5% Tween 80, 5 mmol/L EDTA or 5% PEG 400 was prepared. The cumulative migration (Qr), apparent permeability coefficient (Papp), and the Papp value of bi-direction transport of CA were calculated according to formulas.
(§3) The 0.5 mL […] containing different concentrations of CA was added to the AP side of the 12-well Transwell plate, and 1.5 mL HBSS solution was added to the BL side. At 0, 0.5, 1, 1.5, 2, 2.5, and 3 h, 0.2 mL medium was taken from the BL side and stored at −80 °C. The TEER value of each Transwell chamber was measured.
(§4) The cryopreserved Transwell samples were transferred to a 15 mL centrifuge tube, and any remaining liquid was fully washed using 1 mL of 50% methanol solution which was also transferred to the 15 mL centrifuge tube. The mixture was vortexed for 1 min, and 6 mL of ethyl acetate solution was added to the tube and vortexed for another 2 min. The mixture was centrifuged at 6000 rpm/min at 4 °C for 10 min. The supernatant was dried under vacuum, dissolved in 5% phosphoric acid methanol solution, and filtered through a 0.22 μm microporous membrane. The concentration of CA was determined by HPLC as described above.

Caco-2 cell monolayer = assay: as above; type: in vitro ADME, human; conditions: CA 50–100 μM
Protocol: as §1, §2, §3, §4

[2] = Body weight, organ weights and appearance of CA-fed mice; type: in vivo; conditions: 50 mg/kg/daily oral gavage
Text: The animal experiment protocol was approved by the Institutional Animal Care and Use Committee of Guangzhou Medical University (#GY2020-067, 30 July 2020). Male ICR mice aged 5–6 weeks were kept in a specific-pathogen-free environment with 12-h light/dark cycles. […] Both groups were allowed to eat and drink ad libitum. Four hours after the last gavage, the mice were anesthetized, and their eyeballs were removed for blood collection. They were sacrificed and immediately dissected in the supine position. Serum, major organs (heart, liver, lung, stomach, spleen, kidney, small intestine, cecum, and colon), and the contents of the stomach, small intestine, cecum, and colon were collected, weighed, and stored at −80 °C.

[3] = MTT assay, non-toxic dose range of CA; type: cell-based; conditions: human, Caco-2 cells, CA 100 μM, vs untreated cells, read-out: cell viability
Protocol: as §1

[4] = Caco-2, CA 75 μM, Average of 0.5-3.0 h
[5] = Caco-2, CA 100 μM, Average of 0.5-3.0 h

**Q.** What does the source list for `CC(C)c1cc2c(c(O)c1O)[C@@]1(C(=O)O)CCCC(C)(C)[C@@H]1CC2` [CA, Carnosic acid]?
**A.** Papp A→B at 3 h, 75 μM ([1]; Caco-2, CA 75 μM, 3.0 h, read-out: Papp AP-BL): 0.62 ± 0.01 ×10⁻⁶ cm/s; Papp B→A at 75 μM [1, 4]: 0.66 ± 0.06 ×10⁻⁶ cm/s; efflux ratio at 75 μM [1, 4]: 0.63; Papp A→B at 75 μM ([1]; Caco-2, CA 75 μM, Average of 0.5-3.0 h, CA alone, read-out: Papp AP to BL): 1.04 ± 0.02 ×10⁻⁶ cm/s; Papp A→B at 75 μM ([1]; Caco-2, CA 75 μM, Average of 0.5-3.0 h, read-out: Papp AP-BL): 1.04 ± 0.05 ×10⁻⁶ cm/s; Papp B→A at 0.5 h, 100 μM ([1]; Caco-2, CA 100 μM, 0.5 h): 0.39 ± 0.03 ×10⁻⁶ cm/s; efflux ratio at 0.5 h, 100 μM ([1]; Caco-2, CA 100 μM, 0.5 h): 0.35; Papp A→B at 0.5 h, 100 μM ([1]; Caco-2, CA 100 μM, 0.5 h, CA alone, read-out: Papp AP to BL): 1.1 ± 0.1 ×10⁻⁶ cm/s; Papp A→B at 0.5 h, 100 μM ([1]; Caco-2, CA 100 μM, 0.5 h, read-out: Papp AP-BL): 1.1 ± 0.1 ×10⁻⁶ cm/s; Papp B→A at 1 h, 100 μM ([1]; Caco-2, CA 100 μM, 1.0 h): 0.56 ± 0.04 ×10⁻⁶ cm/s; efflux ratio at 1 h, 100 μM ([1]; Caco-2, CA 100 μM, 1.0 h): 0.42; Papp A→B at 1 h, 100 μM ([1]; Caco-2, CA 100 μM, 1.0 h, CA alone, read-out: Papp AP to BL): 1.32 ± 0.09 ×10⁻⁶ cm/s; Papp A→B at 1 h, 100 μM ([1]; Caco-2, CA 100 μM, 1.0 h, read-out: Papp AP-BL): 1.32 ± 0.09 ×10⁻⁶ cm/s; Papp B→A at 1.5 h, 100 μM ([1]; Caco-2, CA 100 μM, 1.5 h): 2.53 ± 0.03 ×10⁻⁶ cm/s; efflux ratio at 1.5 h, 100 μM ([1]; Caco-2, CA 100 μM, 1.5 h): 1.07; Papp A→B at 1.5 h, 100 μM ([1]; Caco-2, CA 100 μM, 1.5 h, CA alone, read-out: Papp AP to BL): 2.36 ± 0.08 ×10⁻⁶ cm/s; Papp A→B at 1.5 h, 100 μM ([1]; Caco-2, CA 100 μM, 1.5 h, read-out: Papp AP-BL): 2.36 ± 0.08 ×10⁻⁶ cm/s; Papp B→A at 2 h, 100 μM ([1]; Caco-2, CA 100 μM, 2.0 h): 1.33 ± 0.05 ×10⁻⁶ cm/s; Papp A→B at 2 h, 100 μM ([1]; Caco-2, CA 100 μM, 2.0 h, CA alone, read-out: Papp AP to BL): 0.87 ± 0.02 ×10⁻⁶ cm/s; efflux ratio at 2 h, 100 μM ([1]; Caco-2, CA 100 μM, 2.0 h, read-out: Efflux Ratio): 1.52; Papp A→B at 2 h, 100 μM ([1]; Caco-2, CA 100 μM, 2.0 h, read-out: Papp AP-BL): 0.87 ± 0.02 ×10⁻⁶ cm/s; Papp B→A at 2.5 h, 100 μM ([1]; Caco-2, CA 100 μM, 2.5 h): 1.45 ± 0.01 ×10⁻⁶ cm/s; efflux ratio at 2.5 h, 100 μM ([1]; Caco-2, CA 100 μM, 2.5 h): 1.7; Papp A→B at 2.5 h, 100 μM ([1]; Caco-2, CA 100 μM, 2.5 h, CA alone, read-out: Papp AP to BL): 0.85 ± 0.05 ×10⁻⁶ cm/s; Papp A→B at 2.5 h, 100 μM ([1]; Caco-2, CA 100 μM, 2.5 h, read-out: Papp AP-BL): 0.85 ± 0.05 ×10⁻⁶ cm/s; Papp B→A at 3 h, 100 μM ([1]; Caco-2, CA 100 μM, 3.0 h): 1.23 ± 0.03 ×10⁻⁶ cm/s; efflux ratio at 3 h, 100 μM ([1]; Caco-2, CA 100 μM, 3.0 h): 1.53; Papp A→B at 3 h, 100 μM ([1]; Caco-2, CA 100 μM, 3.0 h, CA alone, read-out: Papp AP to BL): 0.8 ± 0.09 ×10⁻⁶ cm/s; Papp A→B at 3 h, 100 μM ([1]; Caco-2, CA 100 μM, 3.0 h, read-out: Papp AP-BL): 0.8 ± 0.09 ×10⁻⁶ cm/s; Papp B→A at 100 μM [1, 5]: 1.24 ± 0.04 ×10⁻⁶ cm/s; efflux ratio at 100 μM [1, 5]: 1.03; Papp A→B at 100 μM ([1]; Caco-2, CA 100 μM, Average of 0.5-3.0 h, CA alone, read-out: Papp AP to BL): 1.21 ± 0.03 ×10⁻⁶ cm/s; Papp A→B at 100 μM ([1]; Caco-2, CA 100 μM, Average of 0.5-3.0 h, read-out: Papp AP-BL): 1.2 ± 0.07 ×10⁻⁶ cm/s; efflux ratio at 2 h, 100 μM ([1]; Caco-2, CA 100 μM, after 2-hour incubation, read-out: efflux ratios): 1.52 to 1.7; efflux ratio ([1]; Caco-2, CA 50 and 75 μM, except 50 μM after 3-hour incubation, read-out: efflux ratios): < 1; Papp A→B at 1 h, 75 μM ([1]; Caco-2, CA 75 μM, 1.0 h): 1.08 ± 0.04 ×10⁻⁶ cm/s; Papp B→A at 1 h, 75 μM ([1]; Caco-2, CA 75 μM, 1.0 h): 0.86 ± 0.05 ×10⁻⁶ cm/s; efflux ratio at 1 h, 75 μM ([1]; Caco-2, CA 75 μM, 1.0 h): 0.79; Papp ([1]; Caco-2, CA 50–100 μM, 0.5-3 h, read-out: Papp values in both the AP-BL and BL-AP directions): 0.12 to 2.53 ×10⁻⁶ cm/s; permeability classification (Caco-2 cell monolayer): moderately permeable; adverse effects [2]: not associated with noticeable adverse effects; body weight and weights of liver and spleen, CA-fed vs control mice [2]: no significant difference; Body Weight ([2]; week 1): 33.2 ± 0.9 g; Body Weight ([2]; week 2): 34.8 ± 2.5 g; Body Weight ([2]; week 3): 37.1 ± 1.8 g; Body Weight ([2]; week 4): 38.9 ± 2.4 g; Body Weight ([2]; week 5): 41.2 ± 3.1 g; viability at 48 h, 100 μM [3]: > 90%
